In US20110152166A1, “METHOD OF MODULATION OF PROTEIN PHOSPHORYLATION-DEPENDENT CONFORMATIONAL TRANSITIONS WITH LOW MOLECULAR WEIGHT COMPOUNDS” (priority 2006, published 2011):

Key:
GST-S6K11-365 = assay: Surface plasmon resonance, S6K1 binding to tail peptides; design: species or system rat; conditions: K144N versus wt
Experimental: FIG. 13. The tail phosphate synergistically enhances the ability of the HM phosphate to activate S6K, dependent on the tail phosphate-binding site. (A) The kinase activity of purified kinase domain of S6K1 (S6K11-364), pre-phosphorylated by PDK1 in the activation loop, was determined in the presence of increasing concentrations of synthetic S6K1 tail peptide (residues 366-395) that was either non-phosphorylated (S371/T389), phosphorylated at Ser371 (pS371/T389) or Thr389 (5371/pT389) or phosphorylated at both sites (pS371/pT389). (B) The kinase activity of S6K11-364 and S6K11-364K144N, either pre-phosphorylated or not by PDK1, was determined in the absence or presence of 90 μM S371/pT389 or pS371/pT389. (C) pS371/pT389 S6K1 tail peptide was biotinylated and used to coat streptavidin Sensor Chips. The chips were thereafter analyzed for binding to purified GST-S6K11-365 or GST-56K11-365K144N. (A-C) Experiments were repeated at least 3 times and activity data (expressed as percent) are means±SD.
Sixty 146 cm^2 dishes with COST cells were co-transfected with pEBG-2T-S6K1-365 and pCMV5-myc-PDK1 (ratio 3:1) using calcium phosphate precipitation or with pEBG-2T-PKCζ and pCMV5-myc-PDK1 (ratio 3:1) using Fugene HD according to the manufacturers Instructions. Two days after transfection, the cells were harvested in lysis buffer as described above. […]

PDK150-360 = biological target: T1, PDK150-360 (Homo sapiens, UniProt O15530); assay: Surface plasmon resonance, PDK1 binding to S6K tail peptides
T1 construct: the catalytic domain of PDK1 comprising residues 50-360
T1 sequence (O15530 50-360): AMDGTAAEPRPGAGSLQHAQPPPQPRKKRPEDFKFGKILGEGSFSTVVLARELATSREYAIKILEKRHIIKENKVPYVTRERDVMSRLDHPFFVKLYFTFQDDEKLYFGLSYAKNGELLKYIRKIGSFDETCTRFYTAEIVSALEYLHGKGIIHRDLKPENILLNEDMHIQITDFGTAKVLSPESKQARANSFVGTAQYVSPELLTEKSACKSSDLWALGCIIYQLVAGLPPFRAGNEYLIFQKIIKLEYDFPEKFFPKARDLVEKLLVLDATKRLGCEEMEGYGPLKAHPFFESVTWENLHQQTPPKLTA
Experimental: FIG. 21 (A) Aliquots of S6K1 protein from bar 1, 2, 5 and 6 in FIG. 5B were subjected to immunoblotting with phosphorylation site specific Ab against the activation loop or anti-HA Ab. (B) The kinase activity of PKB<143-479, prephosphorylated by PDK1 in the activation loop, was determined in the presence of increasing concentrations of synthetic PRK2 tail peptides encompassing the HM, which were either nonphosphorylated (PIFtide) or phosphorylated at the tail site (pT958-PIFtide). […] (C) The kinase activity of purified PDK1 was determined in the presence of increasing concentrations of synthetic S6K tail peptide (residues 366-395) that was either phosphorylated at T389 (S371/pT389) or phosphorylated at both 5389 and 5371 (pS371/pT389). Kinase activity is expressed as percent, and data are means+/−SD of 3 independent experiments. (D) Synthetic S371/pT389 S6K tail peptide and pS371/pT389 S6K tail peptide were biotinylated and used to coat streptavidin Sensor Chips. PDK150-360 was injected at different concentrations (0.05-5.4 mM) onto the peptide coated chips. In the inserts, the kinetic constants were obtained by fitting the data to a hyperbola using kaleidagraph software. Representative results from one of several experiments are shown.
BiaCore analysis was performed as described in Biondi et al. (2000). […]

decrease of binding of S6K11-365 to peptide by the K144N mutation (GST-S6K11-365): no effect
binding of PDK1 to tail peptide (in words) (PDK150-360): bound equally well
Substance: S371/pT389: synthetic S6K1 tail peptide (residues 366-395) phosphorylated in the HM
